pIC50: −log10 of the molar value.
Key:
[1] = system: Primary human T-cells; test: Primary Human T-Cell Proliferation Assay Stimulated with IL-2 (CellTiter-Glo); format: cell-based; conditions: Homo sapiens, T-cell, primary human T-cells stimulated with IL-2, proliferation; read-out: IC50, Example 42
Procedure, shortened: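 IC50 derived from CellTiter-Glo ATP signal after 72 hours of IL-2-driven proliferation at 37° C. Cells: primary human T-cells from blood, stimulated beforehand 3-4 days on anti-CD3/anti-CD28 with IL-2, then rested from IL-2 before compound exposure in duplicate; IL-2-free wells served as unstimulated control.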

[2] = system: IL-4 stimulated expression of CD23 in human Ramos B cells (JAK-1 and JAK-3); test: Assay for Ramos B-Cell Line Stimulated with IL-4 (CD23 upregulation, FACS); format: cell-based; conditions: Homo sapiens, Ramos, Ramos B cells stimulated with IL-4, CD23 expression by FACS; read-out: IC50, Example 41
Procedure, shortened: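 Read-out: anti-CD23-PE flow cytometry on Ramos B cells, giving IC50. Cells (5×10^4 per point, RPMI + 5% serum) get compound or DMSO for 1 h at 37 °C, then IL-4 50 units/mL final for 20-24 h.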

| SMILES | pIC50 [2] | pIC50 [1] |
| --- | --- | --- |
| NS(=O)(=O)c1cccc(Nc2ncc(F)c(Nc3ccc(CCCF)cc3)n2)c1 [VI-83, N2-(3-Aminosulfonylphenyl)-5-fluoro-N4-[4-(3-fluoropropyl)phenyl]-2,4-pyrimidinediamine] | 6.95 | 6.53 |
| COc1c(C)cc(Nc2ncc(F)c(Nc3ccc(C(C)(C)C)cc3)n2)cc1S(N)(=O)=O [VI-37, N2-(3-Aminosulfonyl-4-methoxy-5-methylphenyl)-N4-(4-tert-butylphenyl)-5-fluoro-2,4-pyrimidinediamine] | 7.16 | 5.97 |
| N#CCN1C(=O)COc2ccc(Nc3nc(Nc4cccc(S(N)(=O)=O)c4)ncc3F)cc21 [Compound V-7, N2-(3-Aminosulphonylphenyl)-5-fluoro-N4-(3-oxo-4-cyanomethyl-benz[1,4]oxazin-6-yl]-2,4-pyrimidinediamine] | 7.23 | 6.90 |
| CNC(=O)OCc1cccc(Nc2nc(Nc3ccc(C)c(S(N)(=O)=O)c3)ncc2F)c1 [VI-49, N2-(3-Aminosulfonyl-4-methylphenyl)-5-fluoro-N4-[3-(methylaminocarbonyloxymethyl)phenyl]-2,4-pyrimidinediamine] | 6.57 | 5.90 |
| C#CCn1ccc2cc(Nc3nc(Nc4ccc(C)c(S(N)(=O)=O)c4)ncc3F)ccc21 [IX-1, N2-(3-Aminosulfonyl-4-methylphenyl)-5-fluoro-N4-[1-(propyn-3-yl)indol-5-yl]-2,4-pyrimidinediamine] | 7.05 | 6.24 |

More lines, main results first:

| pIC50 [2] | SMILES | pIC50 [1] |
| --- | --- | --- |
| 7.12 | Cc1ccc(Nc2ncc(F)c(Nc3ccc4ncccc4c3)n2)cc1S(N)(=O)=O [VII-69, N2-(3-Aminosulfonyl-4-methylphenyl)-5-fluoro-N4-(quinolin-6-yl)-2,4-pyrimidinediamine] | 6.16 |
| 7.08 | NS(=O)(=O)c1cccc(Nc2ncc(F)c(Nc3ccc(CCCCF)cc3)n2)c1 [VI-92, N2-(3-Aminosulfonylphenyl)-5-fluoro-N4-[4-(4-fluorobutyl)phenyl]-2,4-pyrimidinediamine] | 6.97 |
| 6.82 | NS(=O)(=O)c1cccc(Nc2ncc(F)c(Nc3ccc(CCCO)cc3)n2)c1 [VI-86, N2-(3-Aminosulfonylphenyl)-5-fluoro-N4-[4-(3-hydroxypropyl)phenyl]-2,4-pyrimidinediamine] | 6.75 |
| 6.99 | COc1ccc(Nc2nc(Nc3cccc(S(N)(=O)=O)c3)ncc2F)cn1 [VII-6, N2-(3-Aminosulfonylphenyl)-5-fluoro-N4-(2-methoxypyrid-5-yl)-2,4-pyrimidinediamine] | 5.70 |
